Data taken from ChEMBL document CHEMBL5131559, “Discovery and Preclinical Profiling of GSK3839919, a Potent HIV-1 Allosteric Integrase Inhibitor” (ACS Med Chem Lett, 2022).

Legend:
[1] = Cytotoxicity against human MT2 cells; assay type: toxicity, cell-based
[2] = tested on: Human immunodeficiency virus 1; assay: Antiviral activity against recombinant HIV1 NLRep-Rluc harbouring polymorphic T124/T125 integrase infected in human MT-2 cells assessed as inhibition of virus growth in presence of fetal bovine serum by measuring luciferase activity after 4 days; assay type: functional, organism-based; settings: Human immunodeficiency virus 1, NLRep, MT2, 96 h
[3] = Metabolic stability in human liver microsomes assessed as parent compound disappearance by measuring half life at 0.5 uM in presence of NADPH by LC-MS/MS analysis; assay type: ADME, Microsome
[4] = tested on: Human immunodeficiency virus 1; assay: Antiviral activity against recombinant HIV1 NLRep-Rluc harbouring polymorphic T124/T125 integrase infected in human MT-2 cells assessed as fold change in inhibition of virus growth in presence of fetal bovine serum by measuring luciferase activity after 4 days; assay type: functional; parameters: reference not given here; settings: time 4 day
[5] = Clearance in Sprague-Dawley rat at 1 mg/kg, iv by LC-MS/MS analysis; assay type: ADME, organism-based; settings: in vivo
[6] = tested on: Human immunodeficiency virus 1; assay: Antiviral activity against recombinant HIV1 NLRep-Rluc harbouring polymorphic N124/A125 integrase infected in human MT-2 cells assessed as inhibition of virus growth in presence of fetal bovine serum by measuring luciferase activity after 4 days; assay type: functional, organism-based; settings: Human immunodeficiency virus 1, NLRep, MT2, 96 h
[7] = AUC (0 to infinity) in Sprague-Dawley rat at 5 mg/kg, po by LC-MS/MS analysis; assay type: ADME, organism-based; parameters: time infinity, dose 5 mg/kg, route po; settings: in vivo
[8] = Oral bioavailability in Sprague-Dawley rat at 5 mg/kg by LC-MS/MS analysis; assay type: ADME, organism-based; settings: in vivo

`Cc1nc(C)c([C@H](OC(C)(C)C)C(=O)O)c(N2CCC(C)(C)CC2)c1C1=CCN(CCCc2ccc(F)cc2)CC1` gave a CC50 [1] of at least 22000 nM, an EC50 [2] of 7.6 nM and a half-life at 0.5 µM [3] of 35.5 min. The “fold change (FC)” value [4] was 4.8.
`Cc1nc(C)c([C@H](OC(C)(C)C)C(=O)O)c(N2CCC(C)(C)CC2)c1-c1ccc2c(c1)CCN(Cc1cccc(F)c1F)C2` showed a clearance [5] of 8.1 mL/min/kg, an EC50 [6] of 13.6 nM and a CC50 [1] of at least 24000 nM. The EC50 [2] was 4.2 nM, the AUC(0-inf) [7] was 8.4 µM·h and the bioavailability [8] was 50%.
`Cc1nc(C)c([C@H](OC(C)(C)C)C(=O)O)c(N2CCC(C)(C)CC2)c1-c1ccc2c(c1)CCN(Cc1ccc(F)cc1)C2` gave a CC50 [1] of at least 22000 nM, an EC50 [2] of 5.9 nM and a half-life at 0.5 µM [3] of 55 min. The “fold change (FC)” value [4] was 3.7.
For `Cc1nc(C)c([C@H](OC(C)(C)C)C(=O)O)c(N2CCC(C)(C)CC2)c1-c1ccc2c(c1)CCN(Cc1cccc(F)c1C)C2`, the clearance [5] was 4 mL/min/kg, the EC50 [6] was 8.1 nM and the CC50 [1] was at least 24000 nM. For the same compound, the EC50 [2] was 2.6 nM, the AUC(0-inf) [7] was 23.2 µM·h and the bioavailability [8] was 64%.
For `Cc1nc(C)c([C@H](OC(C)(C)C)C(=O)O)c(N2CCC(C)(C)CC2)c1-c1ccc2c(c1)CCN(c1ncnc3c1cnn3C)C2`, the clearance [5] was 3.6 mL/min/kg, the EC50 [6] was 7 nM and the CC50 [1] was at least 17000 nM. The EC50 [2] was 2.9 nM, the AUC(0-inf) [7] was 36.2 µM·h and the bioavailability [8] was 95%.
Work on `Cc1nc(C)c([C@H](OC(C)(C)C)C(=O)O)c(N2CCC(C)(C)CC2)c1-c1ccc2c(c1)CCN(c1ncnc3c1oc1ccccc13)C2` yielded a clearance [5] of 0.5 mL/min/kg, an EC50 [6] of 3.4 nM and a CC50 [1] of at least 17000 nM. The EC50 [2] was 1.5 nM, the AUC(0-inf) [7] was 226 µM·h and the bioavailability [8] was 72%.
`Cc1nc(C)c([C@H](OC(C)(C)C)C(=O)O)c(N2CCC(C)(C)CC2)c1-c1ccc(OCCc2ccc(F)cc2)nc1` showed a CC50 [1] of at least 22000 nM, an EC50 [2] of 12.3 nM and a half-life at 0.5 µM [3] of over 120 min. The “fold change (FC)” value [4] was 7.2.
Work on `Cc1cccc(F)c1CN1CCc2cc(-c3c(C)nc(C)c([C@H](OC(C)(C)C)C(=O)O)c3N3CCC(C)(C)CC3)ccc2C1` yielded a clearance [5] of 5.8 mL/min/kg, an EC50 [6] of 5.3 nM and a CC50 [1] of at least 24000 nM. It also gave an EC50 [2] of 5.6 nM, an AUC(0-inf) [7] of 16 µM·h and a bioavailability [8] of 70%.
In the case of `Cc1nc(C)c([C@H](OC(C)(C)C)C(=O)O)c(N2CCC(C)(C)CC2)c1-c1ccc2c(c1)CCN(Cc1ccc(F)cc1F)C2`, the clearance [5] is reported as 20.1 mL/min/kg, the EC50 [6] is reported as 5.4 nM and the CC50 [1] is reported as at least 24000 nM. It also gave an EC50 [2] of 2.5 nM, an AUC(0-inf) [7] of 7.3 µM·h and a bioavailability [8] of over 100%.
With `Cc1nc(C)c([C@H](OC(C)(C)C)C(=O)O)c(N2CCC(C)(C)CC2)c1-c1cnc(OCCc2ccc(F)cc2)nc1` the CC50 [1] was at least 22000 nM, the EC50 [2] was 9 nM and the half-life at 0.5 µM [3] was 22 min. The “fold change (FC)” value [4] was 4.8.
